Reference: US20260168983A1, “YaxAB NANOPORE, NANOPORE SYSTEM COMPRISING SAME AND APPLICATIONS THEREOF” (KOREA RESEARCH INSTITUTE OF BIOSCIENCE AND BIOTECHNOLOGY, priority 2022, published 2026)
“Also recorded” adds a separate entry of the source.

Tests used:
Bcl-xL protein = Bcl-xL protein (Homo sapiens, UniProt Q07817)
BRD4-BD1 protein = BRD4-BD1 protein (Homo sapiens, UniProt O60885); details: 1 M LiCl, pH 7.5

Bcl-xL protein, sequence (Q07817 with tags, fused parts or gaps DEL45-84): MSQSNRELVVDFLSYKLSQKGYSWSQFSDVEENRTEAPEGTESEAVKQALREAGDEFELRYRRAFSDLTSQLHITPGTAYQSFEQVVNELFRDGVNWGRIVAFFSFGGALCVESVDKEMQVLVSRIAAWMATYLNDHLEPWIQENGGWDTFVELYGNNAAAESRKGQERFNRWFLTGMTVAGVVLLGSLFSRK

SMILES | current noise (IN) signal of Bcl-xL on individual treatment (Bcl-xL protein; FIG. 17A) | change in pattern of ionic current / current blockade of Bcl-xL on addition of ligand (Bcl-xL protein; ligand added individually to Bcl-xL in cis compartment) | nanopore current blockade signal of BRD4-BD1 with ligand (BRD4-BD1 protein)
CN(C)CC[C@H](CSc1ccccc1)Nc1ccc(S(=O)(=O)NC(=O)c2ccc(N3CCN(Cc4ccccc4-c4ccc(Cl)cc4)CC3)cc2)cc1[N+](=O)[O-] [ABT-737] | specifically increased | change in pattern; also recorded: the pattern of ionic current changed significantly | –
CCOc1cc(N2CCC(O)CC2)ccc1Nc1ncc2c(n1)N(C)c1ccccc1C(=O)N2C [XMD8-92] | – | – | characteristic nanopore current blockade patterns were observed
